Laboratory results from patent publication US20240389846A1, “Methods for Localization of Cancerous Tissue Using Fluorescent Molecular Imaging Agent for Diagnosis or Treatment” (Vergent Bioscience, Inc., priority 2022, published 2024).

Tests used:
cancerous tissue = assay: Preclinical / animal model studies: duration of VGT-309 fluorescence in tissue after administration; format: in vivo
Source text: There are several molecular imaging agents that are currently in various stages of development and testing, but of these agents VGT-309 is particularly advantageous. VGT-309 targets and covalently binds to cathepsin targets, which are present in larger amounts in solid tumors and tumor margins than in normal tissues. When this binding occurs, the quencher is cleaved from the molecule and VGT-309 becomes “active” at which point the tumor will fluoresce under near-infrared (NIR) light.

tumor [1] = assay: Phase 2 study: clinically significant events (CSEs) during tumor removal with imaging agent and NIR; format: in vivo, human; conditions: Phase 2 study of VGT-309 in Australia
Source text: CSEs are one way to measure whether an imaging agent, such as VGT-309, adds a clinical benefit to the diagnosis and treatment process. In this context, CSEs generally fall into one of three categories: (1) localization of hard-to-find tumors, (2) identification of positive resection margins, and (3) identification of additional primary and metastatic lesions that were not previously detected using existing technologies.

tumor [2] = assay: Intraoperative NIR imaging of patients given intravenous VGT-309 before surgery (Examples 1-3); format: in vivo, human

**Q.** `CC1(C)C(/C=C/C2=C(Cl)C(=C/C=C3/N(CCCCCC(=O)NCCNC(=O)c4c(F)c(F)c(OCC(=O)[C@H](CCCCNC(=O)CCCCCN5/C(=C/C=C/C=C/C=C\C6=[N+](CCCCS(=O)(=O)[O-])c7ccc8ccccc8c7C6(C)C)C(C)(C)c6c5ccc5ccccc65)NC(=O)[C@H](Cc5ccccc5)NC(=O)OCc5ccccc5)c(F)c4F)c4ccc5cc(S(=O)(=O)O)ccc5c4C3(C)C)/CCC2)=[N+](CCCS(=O)(=O)[O-])c2ccc(N(CCCS(=O)(=O)O)CCCS(=O)(=O)O)cc21` [VGT-309] was tested. Which “time VGT-309 may continue to emit a signal in tissue following administration” value (cancerous tissue; animal model studies suggest) did it give?
**A.** Its value is “out to seven days”.

**Q.** What about the “time window after administration in which VGT-309 can fluoresce cancerous tissue” value (cancerous tissue; based on preclinical studies, under NIR light) of the same molecule?
**A.** Its value is “two hours to four days”.

**Q.** What about the “fraction of patients who experienced a clinically significant event (CSE)” value (tumor [1]) of the same molecule?
**A.** Its value is “one third”.

**Q.** And the “visualization of tumor under NIR imaging” value (tumor [2]; Example 1, patient, 0.32 mg/kg approximately 21 hours prior to surgery)?
**A.** Its value is “clearly show the location and extent of the tumor”.

**Q.** And the “localization of primary tumor under NIR” value (tumor [2]; Example 2, patient, 0.16 mg/kg approximately 21 hours prior to surgery)?
**A.** The value was “more easily locate the primary tumor”.

**Q.** What about the “detection of lymph node spread by fluorescence under NIR” value (tumor [2]; Example 2, patient, 0.16 mg/kg approximately 21 hours prior to surgery, biopsy confirmed that the cancer had spread) of the same molecule?
**A.** The value was “unexpected fluorescence in a more distant lymph node”.

**Q.** What about the “identification of previously identified (primary) tumor” value (tumor [2]; Example 3, patient with regrowth after radiation, 0.32 mg/kg approximately 18.5 hours prior to surgery) of the same molecule?
**A.** The value was “able to quickly identify and remove the previously identified tumor”.

**Q.** And the “identification of additional tumors (metastatic spread) using NIR” value (tumor [2]; Example 3, patient, 0.32 mg/kg approximately 18.5 hours prior to surgery, abnormal lung tissue confirmed cancerous under NIR)?
**A.** Its value is “able to identify additional tumors using NIR”.
